Test results from ChEMBL document CHEMBL5390198, “Scaffold hopping of N-benzyl-3,4,5-trimethoxyaniline: 5,6,7-Trimethoxyflavan derivatives as novel potential anticancer agents modulating hippo signaling pathway” (2023).

Assays:
Format in all cases: functional
MDA-MB-435 = experiment: Growth inhibition of human MDA-MB-435 cells measured after 24 to 72 hrs by SRB method; conditions: time 24-72 hrs
SK-MEL-28 = experiment: Growth inhibition of human SK-MEL-28 cells measured after 24 to 72 hrs by SRB method; conditions: time 24-72 hrs
A549 = experiment: cells; conditions: Homo sapiens, time 24-72 hrs
Description: Antiproliferative activity against human A549 cells assessed as inhibition of cell growth at 10 uM measured after 24 to 72 hrs by SRB method relative to control

EKVX = experiment: cells; conditions: Homo sapiens, time 24-72 hrs
Description: Antiproliferative activity against human EKVX cells assessed as inhibition of cell growth at 10 uM measured after 24 to 72 hrs by SRB method relative to control

HOP-62 = experiment: Antiproliferative activity against human HOP-62 cells assessed as inhibition of cell growth at 10 uM measured after 24 to 72 hrs by SRB method relative to control; conditions: time 24-72 hrs
HOP-92 = experiment: cells; conditions: Homo sapiens, time 24-72 hrs
Description: Antiproliferative activity against human HOP-92 cells assessed as inhibition of cell growth at 10 uM measured after 24 to 72 hrs by SRB method relative to control

NCI-H226 = experiment: cells; conditions: Homo sapiens, time 24-72 hrs
Description: Antiproliferative activity against human NCI-H226 cells assessed as inhibition of cell growth at 10 uM measured after 24 to 72 hrs by SRB method relative to control

NCI-H23 = experiment: cells; conditions: Homo sapiens, time 24-72 hrs
Description: Antiproliferative activity against human NCI-H23 cells assessed as inhibition of cell growth at 10 uM measured after 24 to 72 hrs by SRB method relative to control

NCI-H322M = experiment: Antiproliferative activity against human NCI-H322M cells assessed as inhibition of cell growth at 10 uM measured after 24 to 72 hrs by SRB method relative to control; conditions: time 24-72 hrs
NCI-H460 = experiment: cells; conditions: Homo sapiens, time 24-72 hrs
Description: Antiproliferative activity against human NCI-H460 cells assessed as inhibition of cell growth at 10 uM measured after 24 to 72 hrs by SRB method relative to control

NCI-H522 = experiment: Antiproliferative activity against human NCI-H522 cells assessed as inhibition of cell growth at 10 uM measured after 24 to 72 hrs by SRB method relative to control; conditions: time 24-72 hrs
CCRF-CEM = experiment: Antiproliferative activity against human CCRF-CEM cells assessed as inhibition of cell growth at 10 uM measured after 24 to 72 hrs by SRB method relative to control; conditions: time 24-72 hrs
HL-60 = experiment: Antiproliferative activity against human HL-60 cells assessed as inhibition of cell growth at 10 uM measured after 24 to 72 hrs by SRB method relative to control; conditions: time 24-72 hrs
K562 = experiment: Antiproliferative activity against human K562 cells assessed as inhibition of cell growth at 10 uM measured after 24 to 72 hrs by SRB method relative to control; conditions: time 24-72 hrs
MOLT-4 = experiment: Antiproliferative activity against human MOLT-4 cells assessed as inhibition of cell growth at 10 uM measured after 24 to 72 hrs by SRB method relative to control; conditions: time 24-72 hrs
RPMI-8226 = experiment: Antiproliferative activity against human RPMI-8226 cells assessed as inhibition of cell growth at 10 uM measured after 24 to 72 hrs by SRB method relative to control; conditions: time 24-72 hrs
SR = experiment: Antiproliferative activity against human SR cells assessed as inhibition of cell growth at 10 uM by measured after 24 to 72 hrs SRB method relative to control; conditions: time 24-72 hrs
PC-3 = experiment: Growth inhibition of human PC-3 cells measured after 24 to 72 hrs by SRB method; conditions: time 24-72 hrs
DU-145 = experiment: Growth inhibition of human DU-145 cells measured after 24 to 72 hrs by SRB method; conditions: time 24-72 hrs
SF-268 = experiment: Growth inhibition of human SF-268 cells measured after 24 to 72 hrs by SRB method; conditions: time 24-72 hrs
SF-295 = experiment: Growth inhibition of human SF-295 cells measured after 24 to 72 hrs by SRB method; conditions: time 24-72 hrs
SNB-19 = experiment: Growth inhibition of human SNB-19 cells measured after 24 to 72 hrs by SRB method; conditions: time 24-72 hrs
U-251 = experiment: Growth inhibition of human U-251 cells measured after 24 to 72 hrs by SRB method; conditions: time 24-72 hrs

Structure (SMILES) | inhibition at 10 µM (A549) [%] | inhibition at 10 µM (EKVX) [%] | inhibition at 10 µM (HOP-62) [%] | inhibition at 10 µM (HOP-92) [%] | inhibition at 10 µM (NCI-H226) [%] | inhibition at 10 µM (NCI-H23) [%] | inhibition at 10 µM (NCI-H322M) [%] | inhibition at 10 µM (NCI-H460) [%] | inhibition at 10 µM (NCI-H522) [%] | also measured
CN(C)/N=N/c1[nH]cnc1C(N)=O [DACARBAZINE] |  |  |  |  |  |  |  |  |  | GI50 (MDA-MB-435): 84.3 µM; GI50 (SK-MEL-28): > 100 µM
COc1ccc(C(=O)Nc2cccc(C3CCc4c(cc(OC)c(OC)c4OC)O3)c2)cc1 (centres undefined) | 56.6 | 45.3 | 60.2 | 38.7 | 69.9 | 41.1 | 24.1 | 74.3 | 57.3 | inhibition at 10 µM (CCRF-CEM): > 60%; inhibition at 10 µM (HL-60): > 60%; inhibition at 10 µM (K562): > 60%; inhibition at 10 µM (MOLT-4): > 60%; inhibition at 10 µM (RPMI-8226): > 60%; inhibition at 10 µM (SR): > 60%
CNC(=O)c1ccc(N2C(=S)N(c3ccc(C#N)c(C(F)(F)F)c3)C(=O)C2(C)C)cc1F [ENZALUTAMIDE] |  |  |  |  |  |  |  |  |  | GI50 (PC-3): 22 µM; GI50 (DU-145): > 31 µM
COc1cccc(C(=O)Nc2cccc(C3CCc4c(cc(OC)c(OC)c4OC)O3)c2)c1 (centres undefined) | 22.1 | 15.2 | 8.46 | 13 | 24 | 10.2 | 18.6 | 4.3 | 33.5 | 
COc1cc2c(c(OC)c1OC)CCC(c1cccc(C(=O)Nc3ccc([N+](=O)[O-])cc3)c1)O2 (centres undefined) | 44.8 | 44.6 | 23.3 | 57.4 | 51.7 | 52.8 | 31.7 | 41.1 | 50.4 | 
COc1cc2c(c(OC)c1OC)CCC(c1cccc(C(=O)Nc3cccc(Cl)c3)c1)O2 (centres undefined) | 38.5 | 35.8 | 20.4 | 91.5 | 34.4 | 14.2 | 48.3 | 15 | 48.3 | 
COc1cc(C(=O)Nc2cccc(C3CCc4c(cc(OC)c(OC)c4OC)O3)c2)cc(OC)c1OC (centres undefined) | 27.6 | 19.5 | 26.1 | 48.9 | 23.8 | 6.7 | 3.54 | 12.7 | 56.8 | 
COc1ccccc1NC(=O)c1cccc(C2CCc3c(cc(OC)c(OC)c3OC)O2)c1 (centres undefined) | 9.57 | 5.98 | 8.84 | 9.4 | 8.23 | 1.98 | 11.4 | 2.86 | 27.7 | 
Cn1nnc2c(C(N)=O)ncn2c1=O [TEMOZOLOMIDE] |  |  |  |  |  |  |  |  |  | GI50 (SF-268): > 100 µM; GI50 (SF-295): > 100 µM; GI50 (SNB-19): > 100 µM; GI50 (U-251): > 100 µM
COc1cccc(NC(=O)c2cccc(C3CCc4c(cc(OC)c(OC)c4OC)O3)c2)c1 (centres undefined) | 29.2 | 30.9 | 14.8 | 73.7 | 46.3 | 26.1 | 45.8 | 16 | 46.9 | 
COc1cc2c(c(OC)c1OC)CCC(c1cccc(C(=O)Nc3ccc(C#N)cc3)c1)O2 (centres undefined) | 49.1 | 39.9 | 27.9 | 47.7 | 67 | 59.4 | 22.6 | 43.5 | 61.6 | 
COc1cc2c(c(OC)c1OC)CCC(c1cccc(C(=O)Nc3ccccc3)c1)O2 (centres undefined) | 15.8 | 9.05 | 6.18 | 77.9 | 25.6 | 15.3 | 41.1 | 12.2 | 38 | 
COc1ccccc1C(=O)Nc1cccc(C2CCc3c(cc(OC)c(OC)c3OC)O2)c1 (centres undefined) | 11.7 | 2.25 | 4.59 | 4.05 | 8.5 | 0.42 | 3.14 | 2.38 | 19.7 | 
